Key:
[1] = system: APPs levels in the cerebrospinal fluid; assay: Western blot of secreted APPs in CSF after i.p. injection; assay type: in vivo, guinea pig; details: for APPs levels in the cerebrospinal fluid relative to saline-injected control: CSF one hour after injection, p<0.05; for Inhibition of the stimulatory effect of dexnorfenfluramine (1 mg/kg) on APPs in CSF: ritanserin 1 mg/kg or ketanserin 2 mg/kg, CSF one hour after injections
From the text: (§1) Guinea pigs are acclimatized to animal housing conditions for at least 70 days before receiving drug treatments or CSF withdrawal. CSF is withdrawn from the cisternae magna. Briefly, the dorsal cervical area and the occipital area of the skull is shaved and cleansed with alcohol after anesthesizing the guinea pigs with ketamine. A 33-gauge needle is used to penetrate the skin, the atlanto-occipital membrane and the dura mater in the region between the anterior of the first vertebra, and posterior of the cerebellum and the occipital protuberance. Upon penetration of the cistemae magna, a slight resistance in advancing the needle is felt; CSF is withdrawn via a PE10 polyethylene tubing attached to the needle at one end, and to a 20 ml syringe at the other. No more than 200 μL of CSF is withdrawn from each guinea pig per session or within a 24h interval. Occasionally, blood is present in the CSF; these samples are discarded and not used for analysis. The entire procedure for CSF withdrawal is completed within 5 minutes.
[…] Sterile normal saline is given control guinea pigs. To determine the time-course of APPs secretion, CSF is withdrawn at 1, 2, 4 or 8h after i.p. injections of either 1 mg/kg dexnorfenfluramine or saline. To determine the effect of chronic dexnorfenfluramine administration on secreted and brain APP levels, guinea pigs are injected with 2 mg/kg dexnorfenfluramine for 10 consecutive days. Withdrawal of CSF is performed 2h after dexnorfenfluramine on the tenth day, after which the guinea pigs are sacrificed and brains removed for analysis. Each guinea pig is repeatedly and randomly assigned on different days for either dose-response, for time-course, and for dexnorfenfluramine-5HT antagonist studies of APPs or Aβ secretion.
CSF (1-200 μL) is used for Western blot analysis of secreted APPs. For analysis of APP holoprotein, brain tissue from the cortex and hippocampus are collected in Eppendorf tubes and sonicated in 50 μL lysis buffer (60 mM Tris-HCl, 4%SDS, 20% glycerol, 1 mM dithiotreitol). The samples are boiled for 10 min to inhibit protease activity. The total amount of protein in each sample is measured by the bicinchoninic acid (Sigma) assay. Prior to gel electrophoresis, 1 μL of 5% bromphenol blue solution is added to each sample.
The amount of CSF or cell protein loaded for sodium dodecyl sulfate-polyacrylamide gel electrophoresis (10-20% SDS PAGE; Bio-Rad) is normalized for the amount of protein per sample. Proteins (equivalent to ˜100 μg cell protein/lane) are separated by electrophoresis, electroblotted onto polyvinylidene difluoride membranes (Immobilon-P, Millipore) and blocked in Tris-buffered saline with 0.15% Tween 20 (TBST) containing 5% powdered milk for 30 min. After 2×10 min rinses in TBST, the membranes are incubated in TBST containing an appropriate antibody. Monoclonal antibody 22C11 (from Boehringer-Mannheim) and APP-KPI (from Chemicon) were used to detect the N-terminus and KPI-domain of APP respectively; an antibody against glial fibrillary acidic […] (GFAP) is obtained from Chemicon.
After an overnight incubation, membranes are rinsed in TBST before being treated for lh with a peroxidase-linked secondary antibody. After several rinses in TBST, protein bands are visualized on Kodak X-AR films by an enhanced chemiluminescence method (Amersham). Optical densities of the protein bands are quantitated by laser scanning densitometry (LKB, Bromma, Sweden), and normalized to the densities of those bands generated under control conditions.
Data Analysis—Measurements of cellular and secreted proteins are normalized against those of control groups prepared in parallel and loaded onto the same blot. Analyses of variance (ANOVA) and t-tests for repeated measures are used to evaluate differences between groups (significance level, p=0.05), using drug treatments as the independent variable. Data are presented as means±SE, n=number of independent experiments.

[2] = system: Aβ1-40 in the cerebrospinal fluid; assay: Aβ40 ELISA of CSF after i.p. injection; assay type: in vivo, guinea pig
From the text: as §1, with “minutes. […]” for “minutes.”
(§2) Measurements of soluble Aβ1-40 or Aβ1-42 in the CSF are quantified using the Aβ40 or Aβ42 enzyme-linked immunosorbent assay (ELISA) kit (QBC, Hopkinton, Mass.) using the procedures recommended by the manufacturer. […]

[3] = system: Aβ1-42 in the cerebrospinal fluid; assay: Aβ42 ELISA of CSF after i.p. injection; assay type: in vivo, guinea pig
From the text: as §1, with “minutes. […]” for “minutes.”
as §2

Brain APP holoprotein = assay: Western blot of brain APP holoprotein after chronic administration; assay type: in vivo, guinea pig; details: 10 consecutive days i.p., 1 mg/kg, p>0.05
[4] = system: GFAP-immunoreactive cultured astrocytes; assay: APP overexpression in cultured astrocytes; assay type: cell-based, rat
Procedure: Astrocytes are isolated from cortices from postnatal rats by methods standard in the art. In brief, dissected cortices are dissociated by trypsinization and trituration through a flamepolished Pasteur pipette. Cells are plated onto poly-L-lysine coated 35- or 100 mm culture dishes at densities of about 10-25 cells/mm^2. The initial culture media, minimal essential medium (MEM, Gibco) containing 10% horse serum (BioWhittaker), are aspirated after 2-5 h after plating to remove unattached cells and debris, and replaced with MEM containing 7.5% fetal bovine serum (FBS, BioWhittaker). Half the media is replaced with MEM/7.5% FBS twice weekly. Cells are kept at 37° C. in a humidified 5% CO2/95% air incubator. Media are changed twice weekly. […]
The amount of media or cell protein loaded for sodium dodecyl sulfate-polyacrylamide gel electrophoresis (10-20% SDS PAGE; Bio-Rad) is normalized for the amount of protein per sample. […] Monoclonal antibodies 22C11 and GFAP (both from Boehringer Mannheim) are used to detect the N-terminus of APP and glial fibrillary acidic protein respectively; antisera R37 and R98 (gifts of Dr. F. Kametani, Tokyo Institute of Psychiatry) are used to detected the C-terminus and KPI motifs of APP respectively; antiserum C8 (gift of Dr. D. Selkoe, Women's Hospital, Harvard Medical School, Cambridge, Mass.) is used to detect the C-terminus of APP. […]

[5] = 10 consecutive days i.p., 1 mg/kg
[6] = 0.5, 1, 2 or 4 mg/kg, single injection, p>0.05

SMILES | APPs levels in the cerebrospinal fluid relative to saline-injected control ([1]; 0.5 mg/kg i.p.) [fold] | APPs levels in the cerebrospinal fluid relative to saline-injected control ([1]; 1 mg/kg i.p.) [fold] | APPs levels in the CSF relative to control group ([1]; 1 mg/kg, 1h after injection) [fold] | APPs levels in the CSF relative to control group ([1]; 1 mg/kg, 2h after injection) [fold] | APPs levels in the CSF relative to control group ([1]; 1 mg/kg, 4h after injection) [fold] | APPs levels in the CSF relative to control group ([1]; 1 mg/kg, 8h after injection) [fold] | APPs levels in the cerebrospinal fluid relative to saline-injected control ([1]; 2 mg/kg i.p.) [fold] | APPs levels in the cerebrospinal fluid relative to saline-injected control ([1]; 4 mg/kg i.p.) [fold] | Increase of APPs levels in CSF relative to control [1, 5] [fold] | Effect on levels of Aβ1-40 in the cerebrospinal fluid relative to control [2, 6] | Aβ1-40 levels in CSF relative to control [2, 5] | Effect on levels of Aβ1-42 in the cerebrospinal fluid relative to control [3, 6] | Aβ1-42 levels in CSF relative to control [3, 5] | Brain APP holoprotein levels (Brain APP holoprotein) | Effect on APP overexpression in cultured astrocytes [4] | Inhibition of the stimulatory effect of dexnorfenfluramine (1 mg/kg) on APPs in CSF [1]
CC(N)Cc1cccc(C(F)(F)F)c1 (single isomer, unassigned; (+)) [dexnorfenfluramine, (+)2-amino-1-(3-trifluoromethylphenyl) propane] | 1.25 | 1.45 | 1.5 | 2.0 | 1.3 | 1.5 | 1.6 | 1.4 | 1.6 | no significant effect | decreased | no significant effect | decreased | not altered | can inhibit APP overexpression | –
O=C(c1ccc(F)cc1)C1CCN(CCn2c(=O)[nH]c3ccccc3c2=O)CC1 [ketanserin] | – | – | – | – | – | – | – | – | – | – | – | – | – | – | – | completely inhibited
Cc1nc2sccn2c(=O)c1CCN1CCC(=C(c2ccc(F)cc2)c2ccc(F)cc2)CC1 [ritanserin] | – | – | – | – | – | – | – | – | – | – | – | – | – | – | – | completely inhibited

Source: patent US20020173511A1, “Serotonergic compositions and methods for treatment of mild cognitive impairment” (priority 2000, published 2002)
